For assay [1], the system named is mammary development. The settings on record: rats; Ruan et al (2006); cited from earlier work.
The subject of assay [2] is mast cells in mammary glands. Description: Mast cells and mammary development in normally developing rats treated from day 21 to 28. Format: in vivo, rat. The settings on record: for Mast cell density stromal / Mast cell density around glands: 28 day old rats treated from day 21, 3 animals; for Mast cell density stromal: normal 3.5 ± 0.8; for Mast cell density around glands: normal 11.5 ± 1.6. The text has this:
We have found for the first time that mast cells play a role in normal mammary development. Mast cells appear around developing mammary gland structures in rats. […] The same animals when they were 21 days old were given SOM230. […] The mast cells are found directly around the developing glands in the stromal compartment.
Overall, the number of mast cells/mm^2 was reduced by SOM230 treatment, as per TABLE 7 below. Mast cells surrounding glands and those elsewhere in the stromal compartment were both reduced.

The subject of assay [3] is VEGF. Description: VEGF immunostaining in mammary glands of normally developing rats. Type of assay: in vivo, rat. The settings on record: 28 day old rats treated from day 21; gland cells and mast cells. An excerpt: They were found in both gland cells and mast cells.
For assay [4], the system named is TUNEL labeled cells in mammary gland. The experiment in a line: Apoptosis by TUNEL staining in mammary gland, hGH+E2 model. Type of assay: in vivo, rat. The settings on record: for % TUNEL labeled cells, DH structure Mod + mild / % TUNEL labeled cells, Normal gland: 3 animals, 7 days; for % TUNEL labeled cells, DH structure Mod + mild: hGH + E2 control 1.9 ± 0.2 (P < 0.002); for % TUNEL labeled cells, Normal gland: hGH + E2 control 2.3 ± 0.1 (P < 0.001); for apoptosis / cell death (in words): hGH+E2 model versus hGH+E2 control. An excerpt:
We also looked at the effect of the various treatment regimens on apoptosis. GH+E2 inhibited apoptosis, with the results are as follows. […] The percent TUNEL labeled cells is depicted in TABLE 5 below.

In assay [5] the target is SSTR-5 (Homo sapiens, UniProt P35346). The settings on record: cited from earlier work.
Assay [6] concerns hyperplastic lesions, LCIS and DCIS of human mammary gland. Description: Proof of principle clinical trial, biopsies before and after treatment (Ki67, TUNEL). Type of assay: in vivo. The text has this: Background: Antiestrogens or aromatase inhibitors are used for breast cancer chemoprevention. These treatments cause unpleasant side effects including hot flashes and vaginal dryness. We have previously shown that IGF-I is required to permit estrogen and progesterone action in the mammary gland. […] Menopausal symptoms would not likely to occur with SOM230 since estrogen is not lowered. Material and Methods: We have approached this issue in several ways. 1) We developed a model of hyperplasia in hypophysectomized and oophorectomized female rats. Hyperplasia was induced by treatment with 600 mcg hGH and follicular phase concentrations of estradiol. Hyperplasia was assessed histologically in sections of mammary gland. 2) To assess translatability to humans we assessed cell proliferation and apoptosis in normal human breast from reduction mammoplasties and samples of usual hyperplasia. 3) We also determined availability of SST receptors in samples of atypical ductal hyperplasia and DCIS, and 4) We have begun to determine whether SOM230 will prevent hyperplasia in humans at risk for breast cancer as it does in rats.
A proof of principle clinical trial is underway to further confirm whether SOM230 inhibits cell proliferation and increases apoptosis in human mammary gland as it does in rats. Data is presently available on 11 enlisted subjects. All patients had atypical hyperplasia on core biopsy and were given 600 ug SOM230 twice daily by injection. Data is available on 8 patients who had forms of hyperplasia that increase the likelihood of developing breast cancer. […] The effect of SOM230 on apoptosis and cell proliferation in hyperplastic lesions in the 8 patients is graphed in FIG. 17. This was also true in 2 cases of LCIS, a pre-cancerous condition, and one case of ductal carcinoma in situ, a cancerous situation. Apoptosis and cell proliferation is graphed for the 2 lobular hyperplasia patients in FIG. 18. FIG. 19 provides a DCIS patient sample cell staining for TUNEL and Ki67 before and after SOM230 administration. DCIS is a very common type of noninvasive breast cancer in women. Thus, human beings respond to SOM230 by inhibiting IGF-I action in the mammary gland. Taken together with our data on relative effects of SOM230 and Tamoxifen our data provide evidence that SOM230 will be at least as effective in preventing or treating breast cancer as Tamoxifen.

Where [7] appears, read: 8 hyperplasia patients, 600 ug twice daily by injection, biopsy before/after.
Setting [8] is: lobular carcinoma in situ patients (2 cases), excisional versus core biopsy.

The source of these data is patent US20090325863A1, “Somatostatin analogs and IGF-I inhibition for breast cancer prevention” (priority 2008, published 2009).

Entries after “also recorded” stand apart in the source; their conditions may differ. Marks after values point to notes of the source that are not given here. *1 amine or outer side, *2 acyl side, *3 side chain or, on linkers, in order; H or OH if unused. Where a SMILES comes first, the peptide text is derived from it. Side-chain parts run from the residue outwards. [ ]: non-standard residue; d: D form. The star is where a group is joined. Ethylenediamine = C(CN[*:2])N[*:1]; Hyp = O=C(O)[C@@H]1C[C@@H](O)CN1; Phg = N[C@H](C(=O)O)c1ccccc1; CO = O=C([*:1])[*:2]; Bn = c1ccc(C*)cc1

Chain of SSTR-5 (P35346 whole entry, species assumed): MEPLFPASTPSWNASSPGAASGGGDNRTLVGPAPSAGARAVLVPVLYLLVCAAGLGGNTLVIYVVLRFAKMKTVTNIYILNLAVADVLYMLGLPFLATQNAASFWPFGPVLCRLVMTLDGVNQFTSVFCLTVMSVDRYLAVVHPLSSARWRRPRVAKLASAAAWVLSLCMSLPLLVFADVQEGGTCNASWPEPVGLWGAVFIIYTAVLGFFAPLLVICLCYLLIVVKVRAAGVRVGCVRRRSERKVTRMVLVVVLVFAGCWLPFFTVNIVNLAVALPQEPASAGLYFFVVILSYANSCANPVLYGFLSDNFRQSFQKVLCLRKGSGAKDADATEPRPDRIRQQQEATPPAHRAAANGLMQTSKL

Take `NCCCC[C@@H]1NC(=O)[C@@H](Cc2c[nH]c3ccccc23)NC(=O)[C@H](c2ccccc2)NC(=O)[C@@H]2C[C@@H](OC(=O)NCCN)CN2C(=O)[C@H](Cc2ccccc2)NC(=O)[C@H](Cc2ccc(OCc3ccccc3)cc2)NC1=O` [SOM230] (cyclo([Hyp]([CO-Ethylenediamine])[Phg][dW]KY(Bn)F)): in assay [1], the “IRS-1 phosphorylation in the mammary gland” value was “reduction in IRS-1 phosphorylation” and the mammary development entry is “prevents mammary development”. In assay [2], the “Mast cell density stromal” value was “reduced” and the “Mast cell density around glands” value was “reduced”. Moreover, in assay [2] (listed as SOM), the “Mast cell density stromal” value was 1.1 ± 0.3^d MC#/1 mm^2 and the “Mast cell density around glands” value is reported as 3.7 ± 0.7^b MC#/1 mm^2. Moreover, the micro vessel density result in assay [2] (normally developing glands versus SOM230 treated) is on record as “greater in glands that were developing normally”. Further, the mammary development result in assay [2] (normally developing rats treated from day 21 to 28) is “inhibit mammary development”. In addition, the “expression of VEGF (immunostaining)” value in assay [3] was “reduced expression”. In assay [4], the “% TUNEL labeled cells, DH structure Mod + mild” value is “increase in apoptosis”; the “% TUNEL labeled cells, Normal gland” value is “increase in apoptosis”; the “apoptosis / cell death (in words)” value is “increase in cell death; also recorded: increase in apoptosis; also recorded: more apoptosis”. In addition, in assay [4] (listed as SOM), the “% TUNEL labeled cells, DH structure Mod + mild” value is reported as 5.5 ± 0.4% and the “% TUNEL labeled cells, Normal gland” value was determined as 6.5 ± 0.4%. Also, the “apoptosis / cell death (in words)” value in assay [4] (listed as SOM 230) was “increase in apoptosis”. Also, the “affinity for SSTR-5” value in assay [5] is reported as “has affinity”. Also, in assay [6] (setting [7]), the “apoptosis (TUNEL assay) in hyperplastic lesions” value is on record as “increase in apoptosis” and the “cell proliferation (Ki67 assay) in hyperplastic lesions” value is on record as “inhibition of cell proliferation”. In assay [6] (setting [8]), the “apoptosis (TUNEL) in LCIS” value is reported as “increased apoptosis” and the “cell proliferation (Ki67) in LCIS” value is “decreased cell proliferation”.
